Structures are written as SMILES.

The target of one experiment is T1, KRas WT (Homo sapiens, UniProt P01116).
T1 construct: Biotinylated KRas (corresponding to amino acids 1-169, produced at Accelegan Inc.); biotin (biotinylated); purchased Accelegan Inc
The experiment in a line: KRas binding assay, TR-FRET displacement of Cy5 labelled tracer. Particulars: 60-minute incubation at room temperature, 1% DMSO, pH 7.5. Put shortly: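 TR-FRET tracer-displacement readout after 60 min at room temperature, using KRas residues 1-169 (biotinylated) with terbium streptavidin and a Cy5 tracer. Buffer: 50 mM HEPES pH 7.5, 5 mM MgCl2, 0.005% Tween-20, 1 mM DTT, 1% DMSO final. IC50 from 4-parameter fit of POC data.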
(In TR-FRET formats the signal depends on donor and acceptor labels being close together.)

The target in a further experiment is T2, KRas G12S (Homo sapiens, UniProt P01116, G12S).
T2 construct: Biotinylated KRas (corresponding to amino acids 1-169, produced at Accelegan Inc.); biotin (biotinylated); purchased Accelegan Inc
The experiment is described as above. Particulars: 60-minute incubation at room temperature, 1% DMSO, pH 7.5. In short, it runs like this:
(§1)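 Room-temperature incubation (60 min) of compound with biotinylated KRas 1-169, tracer and Tb-streptavidin preceded the TR-FRET read. Final DMSO was 1%; buffer pH 7.5. Percent-of-control values went into a 4-parameter equation to give IC50.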

The next experiment concerns the target T3, KRas G12C (Homo sapiens, UniProt P01116, G12C).
T3 construct: Biotinylated KRas (corresponding to amino acids 1-169, produced at Accelegan Inc.); biotin (biotinylated); purchased Accelegan Inc
The description is as above. Particulars: 60-minute incubation at room temperature, 1% DMSO, pH 7.5. Put shortly:
as §1

The target in experiment [1] is T4, KRas-mediated phosphorylation of ERK in A549 cells (Homo sapiens, UniProt P01116, G12S).
T4 construct: pERK HTRF read-out
In words: Inhibition of KRas-mediated phosphorylation of ERK (HTRF), A549 cells. The format is cell-based. The settings on record: HTRF pERK, 3 h incubation.

The target of experiment [2] is T5, KRas-mediated phosphorylation of ERK in H358 cells (Homo sapiens, UniProt P01116, G12C).
T5 construct: pERK HTRF read-out
The experiment in a line: Inhibition of KRas-mediated phosphorylation of ERK (HTRF), H358 cells. The format is cell-based. Particulars: HTRF pERK, 3 h incubation.

In experiment [3] the target is T6, KRas-mediated phosphorylation of ERK in MKN1 cells (Homo sapiens, UniProt P01116).
T6 construct: pERK HTRF read-out
The experiment in a line: Inhibition of KRas-mediated phosphorylation of ERK (HTRF), MKN1 cells. Format: cell-based. The settings on record: MKN1 cells (KRas WT); HTRF pERK; 3 h incubation. The procedure: Inhibition of KRas Phosphorylation of ERK (HTRF) by Exemplary Compounds of Formula (Ia) or (Ib)
Cisbio HTRF Advanced pERK Assay Catalog #64AERPEH • Cells: MKN1, PSN1 • Procedure: • 1. Day 1: Seed 6,000 cells/well −25 μl/well in 384-well white solid bottom plate; RPM1_10% FBS. Incubate overnight at 37 °C/5% CO2. • 2.

T3 sequence (P01116 1-169 isoform P01116-2 G12C): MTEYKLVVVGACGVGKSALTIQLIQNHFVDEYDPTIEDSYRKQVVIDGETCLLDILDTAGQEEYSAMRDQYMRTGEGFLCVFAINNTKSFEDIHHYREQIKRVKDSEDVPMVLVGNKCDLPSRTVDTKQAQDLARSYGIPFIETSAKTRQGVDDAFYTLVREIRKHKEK
T4 sequence (P01116 1-188 isoform P01116-2 G12S): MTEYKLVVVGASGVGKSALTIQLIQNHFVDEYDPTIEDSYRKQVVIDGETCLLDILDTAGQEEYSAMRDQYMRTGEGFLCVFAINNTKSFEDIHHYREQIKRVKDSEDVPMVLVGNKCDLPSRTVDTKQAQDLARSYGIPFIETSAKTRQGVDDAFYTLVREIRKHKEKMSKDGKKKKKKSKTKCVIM
T2 sequence (P01116 1-169 isoform P01116-2 G12S): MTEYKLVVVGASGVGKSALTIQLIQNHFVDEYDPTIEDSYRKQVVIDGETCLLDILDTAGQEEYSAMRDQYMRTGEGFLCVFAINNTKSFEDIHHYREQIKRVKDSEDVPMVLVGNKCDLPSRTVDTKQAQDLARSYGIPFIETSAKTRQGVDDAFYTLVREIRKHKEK
T6 sequence (P01116 1-188 isoform P01116-2): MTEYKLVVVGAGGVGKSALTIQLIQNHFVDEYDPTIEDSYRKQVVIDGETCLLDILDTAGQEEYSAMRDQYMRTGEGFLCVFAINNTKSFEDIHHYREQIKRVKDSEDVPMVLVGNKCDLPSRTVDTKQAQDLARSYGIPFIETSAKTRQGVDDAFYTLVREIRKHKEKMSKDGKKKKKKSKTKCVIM
T5 sequence (P01116 1-188 isoform P01116-2 G12C): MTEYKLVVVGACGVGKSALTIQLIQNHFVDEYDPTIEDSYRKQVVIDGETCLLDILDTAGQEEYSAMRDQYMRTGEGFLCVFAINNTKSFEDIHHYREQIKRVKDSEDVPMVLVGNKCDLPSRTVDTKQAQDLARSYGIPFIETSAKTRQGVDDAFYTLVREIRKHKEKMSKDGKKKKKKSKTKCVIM
T1 sequence (P01116 1-169 isoform P01116-2): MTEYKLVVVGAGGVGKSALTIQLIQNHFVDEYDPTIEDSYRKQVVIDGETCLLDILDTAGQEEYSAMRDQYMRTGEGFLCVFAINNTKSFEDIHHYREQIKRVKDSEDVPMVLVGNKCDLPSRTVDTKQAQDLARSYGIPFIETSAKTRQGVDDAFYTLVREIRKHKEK

On to `CCc1c(F)ccc2cc(O)cc(-c3ncc4c(N5CCCCC(C(=O)n6ccc(C)n6)CC5)nc(OC[C@@]56CCCN5C/C(=C\F)C6)nc4c3F)c12` (stereo partly drawn) [Example 124, (1-(7-(8-ethyl-7-fluoro-3-hydroxynaphthalen-1-yl)-8-fluoro-2-(((S,Z)-2-(fluoromethylene)tetrahydro-1H-pyrrolizin-7a(5H)-yl)methoxy)pyrido[4,3-d]pyrimidin-4-yl)azocan-4-yl)(3-methyl-1H-pyrazol-1-yl)methanone], for which the 50% inhibitory concentration (IC50) (as a rule, the concentration needed to halve the response being measured) at KRas WT came to 103 nM; at KRas G12S, 3 nM; on KRas G12C, 4 nM; in experiment [1], 7 nM; in experiment [2] it was 25 nM; in experiment [3], 93 nM.
In the case of `CCc1c(F)ccc2cc(O)cc(-c3ncc4c(N5CCN(C(=O)n6ccc(C)n6)C(C(F)(F)F)C5)nc(OC[C@@]56CCCN5C[C@H](F)C6)nc4c3F)c12` (stereo partly drawn) [Example 127, (4-(7-(8-ethyl-7-fluoro-3-hydroxynaphthalen-1-yl)-8-fluoro-2-(((2R,7aS)-2-fluorotetrahydro-1H-pyrrolizin-7a(5H)-yl)methoxy)pyrido[4,3-d]pyrimidin-4-yl)-2-(trifluoromethyl)piperazin-1-yl)(3-methyl-1H-pyrazol-1-yl)methanone], the IC50 was 193 nM at KRas WT; 407 nM at KRas G12S; 224 nM on KRas G12C; 7190 nM in experiment [1]; 635 nM in experiment [2]; 514 nM in experiment [3].
Turning to `CCc1c(F)ccc2cc(O)cc(-c3ncc4c(N5C[C@H]6C[C@@H](C(=O)n7ccc(C)n7)C[C@H]6C5)nc(OC[C@@]56CCCN5C[C@H](F)C6)nc4c3F)c12` [Example 128, ((3aR,5S,6aS)-2-(7-(8-ethyl-7-fluoro-3-hydroxynaphthalen-1-yl)-8-fluoro-2-(((2R,7aS)-2-fluorotetrahydro-1H-pyrrolizin-7a(5H)-yl)methoxy)pyrido[4,3-d]pyrimidin-4-yl)octahydrocyclopenta[c]pyrrol-5-yl)(3-methyl-1H-pyrazol-1-yl)methanone], the half-inhibitory concentration (IC50) at KRas WT is 1190 nM; on KRas G12S it was 11 nM; on KRas G12C, 93 nM; in experiment [1], 57 nM; in experiment [2] it was 1540 nM; in experiment [3], 7430 nM.
As for `N#Cc1c(N)sc2c(F)ccc(-c3c(Cl)cc4c(N5CCC(C(=O)n6cccn6)CC5)nc(OC[C@@]56CCCN5C[C@H](F)C6)nc4c3F)c12` [Example 129, 4-(4-(4-(1H-pyrazole-1-carbonyl)piperidin-1-yl)-6-chloro-8-fluoro-2-(((2R,7aS)-2-fluorotetrahydro-1H-pyrrolizin-7a(5H)-yl)methoxy)quinazolin-7-yl)-2-amino-7-fluorobenzo[b]thiophene-3-carbonitrile], the concentration for half-maximal inhibition (IC50) worked out at 8 nM at KRas WT; 5 nM at KRas G12S; 7 nM on KRas G12C; 4 nM in experiment [1]; 26 nM in experiment [2]; 139 nM in experiment [3].
Consider `Cc1ccn(C(=O)C2CCCN(c3nc(OC[C@@]45CCCN4C[C@H](F)C5)nc4c(F)c(-c5ccc(F)c6sc(N)c(C#N)c56)c(Cl)cc34)CC2)n1` (stereo partly drawn) [Example 130, 2-amino-4-(6-chloro-8-fluoro-2-(((2R,7aS)-2-fluorotetrahydro-1H-pyrrolizin-7a(5H)-yl)methoxy)-4-(4-(3-methyl-1H-pyrazole-1-carbonyl)azepan-1-yl)quinazolin-7-yl)-7-fluorobenzo[b]thiophene-3-carbonitrile], for which the half-inhibitory concentration (IC50) was determined as 10 nM on KRas WT; 8 nM at KRas G12S; 11 nM on KRas G12C; 7 nM in experiment [1]; 7 nM in experiment [2]; 200 nM in experiment [3].
Regarding `N#Cc1c(N)sc2c(F)ccc(-c3c(Cl)cc4c(N5CCCC(C(=O)n6cccn6)CC5)nc(OC[C@@]56CCCN5C[C@H](F)C6)nc4c3F)c12` (stereo partly drawn) [Example 131, 4-(4-(4-(1H-pyrazole-1-carbonyl)azepan-1-yl)-6-chloro-8-fluoro-2-(((2R,7aS)-2-fluorotetrahydro-1H-pyrrolizin-7a(5H)-yl)methoxy)quinazolin-7-yl)-2-amino-7-fluorobenzo[b]thiophene-3-carbonitrile], the IC50 at KRas WT is 7 nM; on KRas G12S, 6 nM; at KRas G12C it was 7 nM; in experiment [1], 5 nM; in experiment [2], 9 nM; in experiment [3], 258 nM.
`Cc1ccn(C(=O)C2CCCN(c3nc(OC[C@@]45CCCN4C[C@H](F)C5)nc4c(F)c(-c5ccc(F)c6sc(N)c(C#N)c56)c(Cl)cc34)C2)n1` (stereo partly drawn) [Example 132, 2-amino-4-(6-chloro-8-fluoro-2-(((2R,7aS)-2-fluorotetrahydro-1H-pyrrolizin-7a(5H)-yl)methoxy)-4-(3-(3-methyl-1H-pyrazole-1-carbonyl)piperidin-1-yl)quinazolin-7-yl)-7-fluorobenzo[b]thiophene-3-carbonitrile]: the IC50 at KRas WT was 25 nM; at KRas G12S, 17 nM; on KRas G12C, 19 nM; in experiment [1], greater than 10000 nM; in experiment [2], 1200 nM; in experiment [3] it was 404 nM.
Regarding `Cc1ccn(C(=O)C2CCN(c3nc(OC[C@@]45CCCN4C[C@H](F)C5)nc4c(F)c(-c5ccc(F)c6sc(N)c(C#N)c56)c(Cl)cc34)CC2)n1` [Example 133, 2-amino-4-(6-chloro-8-fluoro-2-(((2R,7aS)-2-fluorotetrahydro-1H-pyrrolizin-7a(5H)-yl)methoxy)-4-(4-(3-methyl-1H-pyrazole-1-carbonyl)piperidin-1-yl)quinazolin-7-yl)-7-fluorobenzo[b]thiophene-3-carbonitrile], the concentration for half-maximal inhibition (IC50) amounted to 17 nM on KRas WT; 7 nM at KRas G12S; 17 nM at KRas G12C; 7 nM in experiment [1]; 20 nM in experiment [2]; 105 nM in experiment [3].
For the molecule `Cc1ccn(C(=O)CC2CN(c3nc(OC[C@@]45CCCN4C[C@H](F)C5)nc4c(F)c(-c5ccc(F)c6sc(N)c(C#N)c56)c(Cl)cc34)C2)n1` [Example 138, 2-amino-4-(6-chloro-8-fluoro-2-(((2R,7aS)-2-fluorotetrahydro-1H-pyrrolizin-7a(5H)-yl)methoxy)-4-(3-(2-(3-methyl-1H-pyrazol-1-yl)-2-oxoethyl)azetidin-1-yl)quinazolin-7-yl)-7-fluorobenzo[b]thiophene-3-carbonitrile], the half-maximal inhibitory concentration (IC50) on KRas WT is 16 nM; on KRas G12S, 6 nM; on KRas G12C it was 13 nM; in experiment [1] it was 137 nM; in experiment [2], 157 nM; in experiment [3], 106 nM.
In the case of `Cc1ccn(C(=O)C2CCN(c3nc(OC[C@@]45CCCN4C[C@H](F)C5)nc4c(F)c(-c5ccc(F)c6sc(N)c(C#N)c56)c(Cl)cc34)C2)n1` (stereo partly drawn) [Example 139, 2-amino-4-(6-chloro-8-fluoro-2-(((2R,7aS)-2-fluorotetrahydro-1H-pyrrolizin-7a(5H)-yl)methoxy)-4-(3-(3-methyl-1H-pyrazole-1-carbonyl)pyrrolidin-1-yl)quinazolin-7-yl)-7-fluorobenzo[b]thiophene-3-carbonitrile], the IC50 on KRas WT was found to be 16 nM; at KRas G12S, 5 nM; on KRas G12C it was 5 nM; in experiment [1], 46 nM; in experiment [2], 412 nM; in experiment [3], 1210 nM.

Source of the values: patent US20260356856A1, “KRAS G12S AND G12C INHIBITORS” (MIRATI THERAPEUTICS, INC., priority 2023, published 2026).
